Results: the supplement of paper PMC11061612

Key:
Venetoclax = compound: CC1(C)CCC(CN2CCN(c3ccc(C(=O)NS(=O)(=O)c4ccc(NCC5CCOCC5)c([N+](=O)[O-])c4)c(Oc4cnc5[nH]ccc5c4)c3)CC2)=C(c2ccc(Cl)cc2)C1 [Venetoclax]; conditions: max 1 µM
How it was run: (§1)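 Cancer cell lines in 1536-well plates (7.5 μl DMEM/F12 or RPMI, 10% FBS) were held 24 hours at 37°C and 5% CO2 and then dosed for 72 hours at a final DMSO of typically 0.2%. Viability was taken from CellTiter-Glo 2.0 luminescence, scaled between blank-well and DMSO-well means. Curves were fitted as two-parameter logistic models with a non-linear mixed effects model, from which the single-agent IC50 was taken.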

Selumetinib = compound: Cn1cnc2c(F)c(Nc3ccc(Br)cc3Cl)c(C(=O)NOCCO)cc21 [Selumetinib]; conditions: max 10 µM
How it was run: as §1

Taselisib = compound: Cc1nc(-c2cn3c(n2)-c2ccc(-c4cnn(C(C)(C)C(N)=O)c4)cc2OCC3)n(C(C)C)n1 [Taselisib]; conditions: max 10 µM
How it was run: as §1

Trametinib = compound: CC(=O)Nc1cccc(-n2c(=O)n(C3CC3)c(=O)c3c(Nc4ccc(I)cc4F)n(C)c(=O)c(C)c32)c1 [Trametinib]; conditions: max 1 µM
How it was run: as §1

Savolitinib = compound: C[C@@H](c1ccc2nccn2c1)n1nnc2ncc(-c3cnn(C)c3)nc21 [Savolitinib]; conditions: max 1 µM
How it was run: as §1

Doxorubicin = compound: COc1cccc2c1C(=O)c1c(O)c3c(c(O)c1C2=O)C[C@@](O)(C(=O)CO)C[C@@H]3O[C@H]1C[C@H](N)[C@H](O)[C@H](C)O1 [Doxorubicin]; conditions: max 1 µM
How it was run: as §1

Alisertib = compound: COc1cc(Nc2ncc3c(n2)-c2ccc(Cl)cc2C(c2c(F)cccc2OC)=NC3)ccc1C(=O)O [Alisertib]; conditions: max 10 µM
How it was run: as §1

AZD1390 = compound: CC(C)n1c(=O)n(C)c2cnc3cc(F)c(-c4ccc(OCCCN5CCCCC5)nc4)cc3c21 [AZD1390]; conditions: max 0.3 µM
How it was run: as §1

Gefitinib = compound: COc1cc2ncnc(Nc3ccc(F)c(Cl)c3)c2cc1OCCCN1CCOCC1 [Gefitinib]; conditions: max 10 µM
How it was run: as §1

Prexasertib = compound: COc1cccc(OCCCN)c1-c1cc(Nc2cnc(C#N)cn2)n[nH]1 [Prexasertib]; conditions: max 1 µM
How it was run: as §1

Lapatinib = compound: CS(=O)(=O)CCNCc1ccc(-c2ccc3ncnc(Nc4ccc(OCc5cccc(F)c5)c(Cl)c4)c3c2)o1 [Lapatinib]; conditions: max 10 µM
How it was run: as §1

SN-38 = compound: CCc1c2c(nc3ccc(O)cc13)-c1cc3c(c(=O)n1C2)COC(=O)[C@]3(O)CC [SN-38]; conditions: max 0.3 µM
How it was run: as §1

Crizotinib = compound: C[C@@H](Oc1cc(-c2cnn(C3CCNCC3)c2)cnc1N)c1c(Cl)ccc(F)c1Cl [Crizotinib]; conditions: max 10 µM
How it was run: as §1

Capivasertib = compound: C1CN(CCC1(C(=O)N[C@@H](CCO)C2=CC=C(C=C2)Cl)N)C3=NC=NC4=C3C=CN4 [Capivasertib]; conditions: max 10 µM
How it was run: as §1

Palbociclib = compound: CC(=O)c1c(C)c2cnc(Nc3ccc(N4CCNCC4)cn3)nc2n(C2CCCC2)c1=O [Palbociclib]; conditions: max 10 µM
How it was run: as §1

AZD8186 = compound: C[C@@H](Nc1cc(F)cc(F)c1)c1cc(C(=O)N(C)C)cc2c(=O)cc(N3CCOCC3)oc12 [AZD8186]; conditions: max 3 µM
How it was run: as §1

AZD0156 = compound: CN(C)CCCOc1ccc(-c2ccc3ncc4c(c3c2)n(C2CCOCC2)c(=O)n4C)cn1 [AZD0156]; conditions: max 3 µM
How it was run: as §1

AZD5153 = compound: COc1nnc2ccc(N3CCC(c4ccc(OCCN5CCN(C)C(=O)[C@H]5C)cc4)CC3)nn12 [AZD5153]; conditions: max 1 µM
How it was run: as §1

Olaparib = compound: O=C(c1cc(Cc2n[nH]c(=O)c3ccccc23)ccc1F)N1CCN(C(=O)C2CC2)CC1 [Olaparib]; conditions: max 10 µM
How it was run: as §1

SG3199 = compound: CC1=CN2[C@@H](C1)C=NC3=CC(=C(C=C3C2=O)OC)OCCCCCOC4=C(C=C5C(=C4)N=C[C@@H]6CC(=CN6C5=O)C)OC [SG3199]; conditions: max 0.001 µM
How it was run: as §1

AZD6738 = compound: C[C@@H]1COCCN1C2=NC(=NC(=C2)C3(CC3)[S@](=N)(=O)C)C4=C5C=CNC5=NC=C4 [AZD6738]; conditions: max 10 µM
How it was run: as §1

AZD5991 = compound: Cc1c2c(nn1C)CSCc1cc(n(C)n1)CSc1cc(c3ccccc3c1)OCCCc1c(C(=O)O)n(C)c3c-2c(Cl)ccc13 [AZD5991]; conditions: max 1 µM
How it was run: as §1

Dasatinib = compound: CC1=C(C(=CC=C1)Cl)NC(=O)C2=CN=C(S2)NC3=CC(=NC(=N3)C)N4CCN(CC4)CCO [Dasatinib]; conditions: max 2 µM
How it was run: as §1

AZD2811 = compound: CCN(CCO)CCCOc1ccc2c(Nc3cc(CC(=O)Nc4cccc(F)c4)[nH]n3)ncnc2c1 [AZD2811]; conditions: max 1 µM
How it was run: as §1

AZD4320 = compound: CN(CC[C@H](CSC1=CC=CC=C1)NC2=C(C=C(C=C2)S(=O)(=O)NC(=O)C3=CC=C(C=C3)N4CCC(CC4)[C@H](C5=CC=CC=C5C6=CC=C(C=C6)Cl)O)S(=O)(=O)C(F)(F)F)CCO [AZD4320]; conditions: max 1 µM
How it was run: as §1

AZD7648 = compound: Cc1cc2ncnn2cc1Nc1ncc2c(n1)n(C1CCOCC1)c(=O)n2C [AZD7648]; conditions: max 10 µM
How it was run: as §1

AZD1775 = compound: C=CCn1c(=O)c2cnc(Nc3ccc(N4CCN(C)CC4)cc3)nc2n1-c1cccc(C(C)(C)O)n1 [AZD1775]; conditions: max 3 µM
How it was run: as §1

Cell Line	IC50, cell viability 72 h (Venetoclax)	IC50, cell viability 72 h (Selumetinib)	IC50, cell viability 72 h (Taselisib)	IC50, cell viability 72 h (Trametinib)	IC50, cell viability 72 h (Savolitinib)	IC50, cell viability 72 h (Doxorubicin)	IC50, cell viability 72 h (Alisertib)	IC50, cell viability 72 h (AZD1390)	IC50, cell viability 72 h (Gefitinib)	IC50, cell viability 72 h (Prexasertib)	IC50, cell viability 72 h (Lapatinib)	IC50, cell viability 72 h (SN-38)	IC50, cell viability 72 h (Crizotinib)	IC50, cell viability 72 h (Capivasertib)	IC50, cell viability 72 h (Palbociclib)	IC50, cell viability 72 h (AZD8186)	IC50, cell viability 72 h (AZD0156)	IC50, cell viability 72 h (AZD5153)	IC50, cell viability 72 h (Olaparib)	IC50, cell viability 72 h (SG3199)	IC50, cell viability 72 h (AZD6738)	IC50, cell viability 72 h (AZD5991)	IC50, cell viability 72 h (Dasatinib)	IC50, cell viability 72 h (AZD2811)	IC50, cell viability 72 h (AZD4320)	IC50, cell viability 72 h (AZD7648)	IC50, cell viability 72 h (AZD1775)
786-0 (Kidney Carcinoma)	> 1000 nM	> 10000 nM	> 10000 nM	> 1000 nM	> 1000 nM	571 nM	> 10000 nM	> 300 nM	> 10000 nM	28.8 nM	6480 nM	23 nM	> 10000 nM	4540 nM	> 10000 nM	> 3000 nM	> 3000 nM	523 nM	> 10000 nM	> 1 nM	5550 nM	> 1000 nM	396 nM	> 1000 nM	> 1000 nM	> 10000 nM	392 nM
AN3-CA (Endometrial Carcinoma)	> 1000 nM	> 10000 nM	615 nM	> 1000 nM	> 1000 nM	> 1000 nM	1370 nM	> 300 nM	> 10000 nM	66.5 nM	> 10000 nM	> 300 nM	> 10000 nM	1650 nM	> 10000 nM	> 3000 nM	> 3000 nM	> 1000 nM	> 10000 nM	> 1 nM	> 10000 nM	> 1000 nM	> 2000 nM	> 1000 nM	> 1000 nM	> 10000 nM	1290 nM
AsPC-1 (Pancreatic Carcinoma)	> 1000 nM	> 10000 nM	> 10000 nM	866 nM	> 1000 nM	> 1000 nM	> 10000 nM	> 300 nM	> 10000 nM	> 1000 nM	> 10000 nM	> 300 nM	> 10000 nM	> 10000 nM	> 10000 nM	> 3000 nM	> 3000 nM	> 1000 nM	> 10000 nM	> 1 nM	> 10000 nM	> 1000 nM	> 2000 nM	> 1000 nM	> 1000 nM	> 10000 nM	> 3000 nM
BALL-1 (B-Lymphoblastic Leukemia)	4.7 nM	> 10000 nM	> 10000 nM	> 1000 nM	> 1000 nM	123 nM	84.9 nM	> 300 nM	> 10000 nM	5.12 nM	> 10000 nM	1.57 nM	5240 nM	7830 nM	1150 nM	> 3000 nM	> 3000 nM	59 nM	6290 nM	> 1 nM	487 nM	> 1000 nM	> 2000 nM	865 nM	5.84 nM	> 10000 nM	131 nM
